PubChem BioAssay (NCI)
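Cells were grown in 96-well plates and exposed to each compound for 48 hours at five concentrations; endpoints were interpolated linearly between bracketing concentrations, or set to the highest concentration if not reached. TGI is the concentration that stops growth completely.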

Experiments:
Test in all cases: NCI-60 cell line screen, 48 h
[1] = test system: HCT-116 colon
[2] = test system: 786-0 renal
[3] = test system: K-562 leukemia
[4] = test system: MOLT-4 leukemia
[5] = test system: DLD-1 colon
[6] = test system: NCI-H226 lung
[7] = test system: SNB-19 CNS
[8] = test system: SF-539 CNS
[9] = test system: HCC-2998 colon
[10] = test system: UO-31 renal
[11] = test system: A549 NSCLC
[12] = test system: A498 renal
[13] = test system: SR leukemia
[14] = test system: RXF 393 renal
[15] = test system: HL-60(TB) leukemia
[16] = test system: OVCAR-5 ovarian
[17] = test system: HOP-18 NSCLC
[18] = test system: ACHN renal
[19] = test system: SK-MEL-28 melanoma
[20] = test system: LXFL 529 NSCLC
[21] = test system: M14 melanoma
[22] = test system: SW-620 colon
[23] = test system: SNB-78 CNS
[24] = test system: HOP-62 NSCLC
[25] = test system: SF-295 CNS
[26] = test system: RPMI-8226 leukemia
[27] = test system: HCT-15 colon
[28] = test system: UACC-62 melanoma
[29] = test system: RXF-631 renal
[30] = test system: LOX IMVI melanoma
[31] = test system: IGROV1 ovarian
[32] = test system: TK-10 renal
[33] = test system: NCI-H460 lung
[34] = test system: SK-MEL-5 melanoma
[35] = test system: SN12C renal
[36] = test system: UACC-257 melanoma
[37] = test system: HOP-92 NSCLC
[38] = test system: SF-268 CNS
[39] = test system: XF 498 CNS
[40] = test system: SK-MEL-2 melanoma
[41] = test system: CCRF-CEM leukemia
[42] = test system: DMS 114 small cell lung
[43] = test system: SK-OV-3 ovarian
[44] = test system: SNB-75 CNS
[45] = test system: OVCAR-8 ovarian
[46] = test system: COLO 205 colon
[47] = test system: EKVX NSCLC
[48] = test system: MALME-3M melanoma
[49] = test system: M19-MEL melanoma
[50] = test system: OVCAR-3 ovarian
[51] = test system: HT29 colon
[52] = test system: NCI-H522 lung
[53] = test system: KM12 colon
[54] = test system: KM20L2 colon
[55] = test system: DMS 273 small cell lung
[56] = test system: U251 CNS
[57] = test system: NCI-H23 lung

Question: How did the TGI [1] turn out when COc1cccc(-c2cc(=O)c3cc4c(cc3[nH]2)OCO4)c1 was run?
Answer: > 100 µM

Question: And the TGI [2]?
Answer: 10.2 µM

Question: And the TGI [3]?
Answer: > 100 µM

Question: What about the TGI [4] of the same compound?
Answer: > 100 µM

Question: What about the TGI [5] of the same compound?
Answer: > 100 µM

Question: What about the TGI [6] of the same compound?
Answer: 0.593 µM

Question: What about the TGI [7] of the same compound?
Answer: > 45.1 µM

Question: And the TGI [8]?
Answer: 0.317 µM

Question: What about the TGI [9] of the same compound?
Answer: 0.934 µM

Question: And the TGI [10]?
Answer: > 100 µM

Question: What about the TGI [11] of the same compound?
Answer: > 100 µM

Question: And the TGI [12]?
Answer: 1.45 µM

Question: And the TGI [13]?
Answer: > 100 µM

Question: What about the TGI [14] of the same compound?
Answer: 0.474 µM

Question: And the TGI [15]?
Answer: 0.896 µM

Question: What about the TGI [16] of the same compound?
Answer: 3.02 µM

Question: What about the TGI [17] of the same compound?
Answer: > 100 µM

Question: And the TGI [18]?
Answer: > 48.2 µM

Question: And the TGI [19]?
Answer: > 100 µM

Question: What about the TGI [20] of the same compound?
Answer: 23.2 µM

Question: What about the TGI [21] of the same compound?
Answer: 2.95 µM

Question: And the TGI [22]?
Answer: > 100 µM

Question: What about the TGI [23] of the same compound?
Answer: > 100 µM

Question: And the TGI [24]?
Answer: 21.9 µM

Question: And the TGI [25]?
Answer: 0.828 µM

Question: What about the TGI [26] of the same compound?
Answer: > 100 µM

Question: What about the TGI [27] of the same compound?
Answer: 8.25 µM

Question: What about the TGI [28] of the same compound?
Answer: > 100 µM

Question: And the TGI [29]?
Answer: > 100 µM

Question: And the TGI [30]?
Answer: > 100 µM

Question: And the TGI [31]?
Answer: 6.12 µM

Question: And the TGI [32]?
Answer: 54.5 µM

Question: And the TGI [33]?
Answer: 0.898 µM

Question: And the TGI [34]?
Answer: 0.327 µM

Question: What about the TGI [35] of the same compound?
Answer: > 100 µM

Question: And the TGI [36]?
Answer: > 100 µM

Question: What about the TGI [37] of the same compound?
Answer: > 100 µM

Question: And the TGI [38]?
Answer: > 69.5 µM

Question: What about the TGI [39] of the same compound?
Answer: 2.59 µM

Question: And the TGI [40]?
Answer: 3.77 µM

Question: And the TGI [41]?
Answer: > 100 µM

Question: And the TGI [42]?
Answer: > 100 µM

Question: And the TGI [43]?
Answer: 1.15 µM

Question: And the TGI [44]?
Answer: 0.245 µM

Question: What about the TGI [45] of the same compound?
Answer: 0.868 µM

Question: What about the TGI [46] of the same compound?
Answer: 0.303 µM

Question: And the TGI [47]?
Answer: > 100 µM

Question: What about the TGI [48] of the same compound?
Answer: > 67.6 µM

Question: And the TGI [49]?
Answer: > 100 µM

Question: What about the TGI [50] of the same compound?
Answer: 0.452 µM

Question: What about the TGI [51] of the same compound?
Answer: 2.37 µM

Question: What does the source list for CCOC(=O)C1Cc2ccc3c4c(ccc(c24)C1)CC(C(=O)OCC)C3?
Answer: TGI [1]: > 100 µM; TGI [2]: > 100 µM; TGI [3]: > 100 µM; TGI [4]: > 100 µM; TGI [5]: > 100 µM; TGI [6]: > 100 µM; TGI [7]: > 100 µM; TGI [8]: > 100 µM; TGI [9]: > 100 µM; TGI [10]: > 100 µM; TGI [11]: > 100 µM; TGI [12]: > 100 µM; TGI [13]: > 100 µM; TGI [14]: > 100 µM; TGI [15]: > 100 µM; TGI [16]: > 100 µM; TGI [17]: > 100 µM; TGI [52]: > 100 µM; TGI [18]: > 100 µM; TGI [19]: > 100 µM; TGI [21]: > 100 µM; TGI [22]: > 100 µM; TGI [23]: > 100 µM; TGI [24]: > 100 µM; TGI [25]: > 100 µM; TGI [26]: > 100 µM; TGI [27]: > 100 µM; TGI [28]: > 100 µM; TGI [53]: > 100 µM; TGI [54]: > 100 µM; TGI [30]: > 100 µM; TGI [31]: > 100 µM; TGI [32]: > 100 µM; TGI [34]: > 100 µM; TGI [35]: > 100 µM; TGI [36]: > 100 µM; TGI [37]: > 100 µM; TGI [38]: > 100 µM; TGI [39]: > 100 µM; TGI [55]: > 100 µM; TGI [40]: > 100 µM; TGI [41]: > 100 µM; TGI [42]: > 100 µM; TGI [43]: > 100 µM; TGI [56]: > 100 µM; TGI [57]: > 100 µM; TGI [44]: > 100 µM; TGI [45]: > 100 µM; TGI [46]: > 100 µM; TGI [47]: > 100 µM; TGI [48]: > 100 µM; TGI [49]: > 100 µM; TGI [50]: > 100 µM; TGI [51]: > 100 µM
